Key:
Type in all cases: cell-based
BaF3_EGFRWT cells = BaF3_EGFRWT cells (Homo sapiens, UniProt P00533); experiment: Cell growth inhibition assay (CellTiterGlo), BaF3_EGFRWT; conditions: cell growth inhibition, 80 ng/mL EGF, 3 days treatment, read-out: EGFR WT IC50
BaF3_HER2YVMA cells = BaF3_HER2YVMA cells (Homo sapiens, UniProt P04626, DUP772-775, cells depend on it); experiment: Cell growth inhibition assay (CellTiterGlo), BaF3_HER2YVMA; conditions: cell growth inhibition, 3 days treatment, read-out: HER2 - YVMA IC50
BaF3_HER2WT cells = BaF3_HER2WT cells (Homo sapiens, UniProt P04626); experiment: Cell growth inhibition assay (CellTiterGlo), BaF3_HER2WT; conditions: cell growth inhibition, 3 days treatment, read-out: HER2 WT IC50
Sequence of BaF3_HER2WT cells (P04626 whole entry, change not shown): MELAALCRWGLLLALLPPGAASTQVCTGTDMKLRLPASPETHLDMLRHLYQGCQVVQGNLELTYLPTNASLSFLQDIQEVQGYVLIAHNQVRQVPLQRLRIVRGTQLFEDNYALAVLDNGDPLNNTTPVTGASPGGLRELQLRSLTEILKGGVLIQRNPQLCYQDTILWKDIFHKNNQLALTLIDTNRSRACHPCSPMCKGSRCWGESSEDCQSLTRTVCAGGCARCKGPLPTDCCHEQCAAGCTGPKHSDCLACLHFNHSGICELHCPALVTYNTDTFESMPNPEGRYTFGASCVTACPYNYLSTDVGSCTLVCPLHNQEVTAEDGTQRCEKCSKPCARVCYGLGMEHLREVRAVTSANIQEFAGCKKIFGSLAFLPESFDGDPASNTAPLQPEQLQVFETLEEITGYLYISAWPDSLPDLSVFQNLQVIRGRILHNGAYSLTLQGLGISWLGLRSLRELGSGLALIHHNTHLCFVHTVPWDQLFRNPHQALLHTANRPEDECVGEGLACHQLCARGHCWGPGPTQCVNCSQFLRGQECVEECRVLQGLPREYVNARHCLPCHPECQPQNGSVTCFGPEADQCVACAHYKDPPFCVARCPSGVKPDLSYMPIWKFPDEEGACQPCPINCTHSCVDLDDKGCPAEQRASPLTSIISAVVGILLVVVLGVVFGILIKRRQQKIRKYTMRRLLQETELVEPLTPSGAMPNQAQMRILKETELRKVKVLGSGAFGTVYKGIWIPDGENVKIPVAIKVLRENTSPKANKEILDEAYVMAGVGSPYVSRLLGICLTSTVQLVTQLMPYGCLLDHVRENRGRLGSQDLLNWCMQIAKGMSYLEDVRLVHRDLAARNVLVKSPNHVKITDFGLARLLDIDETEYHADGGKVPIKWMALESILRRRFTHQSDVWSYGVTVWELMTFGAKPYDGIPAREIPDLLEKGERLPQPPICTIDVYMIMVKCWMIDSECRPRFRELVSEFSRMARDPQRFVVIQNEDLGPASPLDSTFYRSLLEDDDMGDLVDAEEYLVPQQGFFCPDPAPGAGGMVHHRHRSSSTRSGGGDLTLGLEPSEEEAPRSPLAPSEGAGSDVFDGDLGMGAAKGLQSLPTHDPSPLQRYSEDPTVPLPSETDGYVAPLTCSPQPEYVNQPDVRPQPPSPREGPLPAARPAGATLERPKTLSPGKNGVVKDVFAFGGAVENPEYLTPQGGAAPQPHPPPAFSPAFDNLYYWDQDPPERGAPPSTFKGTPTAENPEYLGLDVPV

Sequence of BaF3_EGFRWT cells (P00533 whole entry, change not shown): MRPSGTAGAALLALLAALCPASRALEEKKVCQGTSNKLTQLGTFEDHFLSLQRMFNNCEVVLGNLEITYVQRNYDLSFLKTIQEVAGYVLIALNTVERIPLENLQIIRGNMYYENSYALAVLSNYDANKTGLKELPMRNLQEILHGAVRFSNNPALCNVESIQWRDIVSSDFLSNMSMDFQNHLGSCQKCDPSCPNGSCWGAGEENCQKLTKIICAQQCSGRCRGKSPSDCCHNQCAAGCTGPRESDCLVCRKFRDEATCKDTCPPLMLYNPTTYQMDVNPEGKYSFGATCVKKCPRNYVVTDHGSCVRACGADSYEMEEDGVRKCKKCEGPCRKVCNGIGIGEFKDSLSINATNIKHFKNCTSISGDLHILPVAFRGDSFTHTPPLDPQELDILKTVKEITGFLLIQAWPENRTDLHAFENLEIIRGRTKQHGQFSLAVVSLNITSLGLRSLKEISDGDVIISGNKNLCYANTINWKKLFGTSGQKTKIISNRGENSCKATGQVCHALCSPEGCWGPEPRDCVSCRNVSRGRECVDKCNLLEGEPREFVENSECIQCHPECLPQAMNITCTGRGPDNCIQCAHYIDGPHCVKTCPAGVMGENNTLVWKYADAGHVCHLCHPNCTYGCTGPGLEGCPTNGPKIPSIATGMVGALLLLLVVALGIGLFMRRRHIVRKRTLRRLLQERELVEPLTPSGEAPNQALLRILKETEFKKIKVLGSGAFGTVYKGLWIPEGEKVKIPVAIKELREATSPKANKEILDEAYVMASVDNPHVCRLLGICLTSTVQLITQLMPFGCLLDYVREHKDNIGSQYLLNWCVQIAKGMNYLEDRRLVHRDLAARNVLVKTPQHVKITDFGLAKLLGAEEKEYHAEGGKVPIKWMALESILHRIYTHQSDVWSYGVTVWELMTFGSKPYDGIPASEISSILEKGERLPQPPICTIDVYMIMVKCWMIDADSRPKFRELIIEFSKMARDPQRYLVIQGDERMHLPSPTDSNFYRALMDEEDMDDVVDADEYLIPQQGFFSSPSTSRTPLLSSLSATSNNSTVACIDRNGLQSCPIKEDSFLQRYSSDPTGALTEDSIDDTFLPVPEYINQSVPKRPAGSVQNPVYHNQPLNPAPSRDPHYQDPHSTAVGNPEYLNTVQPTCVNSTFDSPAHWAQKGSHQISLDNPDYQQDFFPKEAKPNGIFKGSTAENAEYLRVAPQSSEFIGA
Sequence of BaF3_HER2YVMA cells (P04626 with tags, fused parts or gaps DUP772-775): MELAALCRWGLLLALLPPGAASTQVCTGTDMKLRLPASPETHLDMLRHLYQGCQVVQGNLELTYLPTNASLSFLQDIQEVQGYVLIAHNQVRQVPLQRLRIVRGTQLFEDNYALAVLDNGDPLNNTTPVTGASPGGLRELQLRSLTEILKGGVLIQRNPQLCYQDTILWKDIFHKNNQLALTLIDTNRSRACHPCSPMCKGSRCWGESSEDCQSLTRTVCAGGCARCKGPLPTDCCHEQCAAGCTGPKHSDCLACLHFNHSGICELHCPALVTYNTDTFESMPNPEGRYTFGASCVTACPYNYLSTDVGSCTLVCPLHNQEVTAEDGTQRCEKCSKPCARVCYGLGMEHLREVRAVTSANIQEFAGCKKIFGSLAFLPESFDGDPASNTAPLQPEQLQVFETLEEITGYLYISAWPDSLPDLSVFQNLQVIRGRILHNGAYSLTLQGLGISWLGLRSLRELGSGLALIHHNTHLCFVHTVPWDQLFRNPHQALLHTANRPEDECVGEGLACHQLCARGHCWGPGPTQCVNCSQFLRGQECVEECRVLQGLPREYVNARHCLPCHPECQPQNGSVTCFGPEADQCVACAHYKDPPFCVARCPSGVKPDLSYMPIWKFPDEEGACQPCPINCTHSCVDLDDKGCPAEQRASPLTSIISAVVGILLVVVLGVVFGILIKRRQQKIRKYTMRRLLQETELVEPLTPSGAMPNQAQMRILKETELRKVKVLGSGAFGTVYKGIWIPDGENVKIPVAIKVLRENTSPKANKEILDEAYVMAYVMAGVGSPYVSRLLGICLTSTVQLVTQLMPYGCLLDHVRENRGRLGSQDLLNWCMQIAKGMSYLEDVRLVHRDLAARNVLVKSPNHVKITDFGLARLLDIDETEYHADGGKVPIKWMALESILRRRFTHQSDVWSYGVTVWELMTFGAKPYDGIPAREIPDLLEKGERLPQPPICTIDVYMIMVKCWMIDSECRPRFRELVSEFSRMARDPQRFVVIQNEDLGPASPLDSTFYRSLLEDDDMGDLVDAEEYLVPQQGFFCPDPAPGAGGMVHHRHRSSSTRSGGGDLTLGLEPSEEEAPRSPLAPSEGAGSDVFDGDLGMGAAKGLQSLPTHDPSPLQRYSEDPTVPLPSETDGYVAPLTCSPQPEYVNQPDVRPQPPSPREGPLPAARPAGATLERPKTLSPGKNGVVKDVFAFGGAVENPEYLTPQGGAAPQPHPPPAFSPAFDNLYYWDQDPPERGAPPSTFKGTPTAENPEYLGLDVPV

Structure (SMILES)	GI50 (BaF3_EGFRWT cells) [nM]	GI50 (BaF3_HER2YVMA cells) [nM]	GI50 (BaF3_HER2WT cells) [nM]
Cc1cc(Nc2ncnn3ccc(C4CCCN(C(=O)/C=C/CN(C)C)C4)c23)ccc1Oc1ccn2ncnc2c1 (single isomer, unassigned) [Examples 107 and 108, first eluting isomer, (E)-1-(3-(4-((4-([1,2,4]triazolo[1,5-a]pyridin-7-yloxy)-3-methylphenyl)amino)pyrrolo[2,1-f][1,2,4]triazin-5-yl)piperidin-1-yl)-4-(dimethylamino)but-2-en-1-one]	1500 to 5000	500 to 1500	< 200
Cc1cc(Nc2ncnn3ccc(C4CCCN(C(=O)/C=C/CN(C)C)C4)c23)ccc1Oc1ccn2ncnc2c1 (single isomer, unassigned) [Examples 107 and 108, second eluting isomer, (E)-1-(3-(4-((4-([1,2,4]triazolo[1,5-a]pyridin-7-yloxy)-3-methylphenyl)amino)pyrrolo[2,1-f][1,2,4]triazin-5-yl)piperidin-1-yl)-4-(dimethylamino)but-2-en-1-one]	1500 to 5000	1500 to 5000	500 to 1500
Cc1cc(Nc2ncnn3ccc(C4CCCN(C(=O)/C=C/CN(C)C)CC4)c23)ccc1Oc1ccn2ncnc2c1 (single isomer, unassigned) [Examples 109 and 110, first eluting isomer, (E)-1-(4-(4-((4-([1,2,4]triazolo[1,5-a]pyridin-7-yloxy)-3-methylphenyl)amino)pyrrolo[2,1-f][1,2,4]triazin-5-yl)azepan-1-yl)-4-(dimethylamino)but-2-en-1-one]	1500 to 5000	< 200	< 200
C=CC(=O)N1CCCC(c2ccn3ncnc(Nc4ccc(Oc5ccn6ncnc6c5)c(C)c4)c23)CC1 (single isomer, unassigned) [Examples 111 and 112, first eluting isomer, 1-(4-(4-((4-([1,2,4]triazolo[1,5-a]pyridin-7-yloxy)-3-methylphenyl)amino)pyrrolo-[2,1-f][1,2,4]triazin-5-yl)azepan-1-yl)prop-2-en-1-one]	1500 to 5000	< 200	< 200
Cc1cc(Nc2ncnn3ccc(C4CC5CCC(C4)N5C(=O)/C=C/CN(C)C)c23)ccc1Oc1ccn2ncnc2c1 (single isomer, unassigned) [Examples 122 and 123, first eluting isomer, (E)-1-(−3-(4-((4-([1,2,4]triazolo[1,5-a]pyridin-7-yloxy)-3-methylphenyl)amino)pyrrolo[2,1-f][1,2,4]triazin-5-yl)-8-azabicyclo[3.2.1]octan-8-yl)-4-(dimethylamino)but-2-en-1-one]	500 to 1500	< 200	< 200
Cc1cc(Nc2ncnn3ccc(C4CC5CCC(C4)N5C(=O)/C=C/CN(C)C)c23)ccc1Oc1ccn2ncnc2c1 (single isomer, unassigned) [Examples 122 and 123, second eluting isomer, (E)-1-(3-(4-((4-([1,2,4]triazolo[1,5-a]pyridin-7-yloxy)-3-methylphenyl)amino)pyrrolo[2,1-f][1,2,4]triazin-5-yl)-8-azabicyclo[3.2.1]octan-8-yl)-4-(dimethylamino)but-2-en-1-one]	1500 to 5000	200 to 500	< 200
C=CC(=O)N1C2CCC1CC(c1ccn3ncnc(Nc4ccc(Oc5ccn6ncnc6c5)c(C)c4)c13)C2 (single isomer, unassigned) [Examples 124 and 125, first eluting isomer, 1-(3-(4-((4-([1,2,4]triazolo[1,5-a]pyridin-7-yloxy)-3-methylphenyl)amino)pyrrolo[2,1-f][1,2,4]triazin-5-yl)-8-azabicyclo[3.2.1]octan-8-yl)prop-2-en-1-one]	< 200	< 200	< 200
C=C(CN(C)C)C(=O)N1C2CCC1CC(c1ccn3ncnc(Nc4ccc(Oc5ccn6ncnc6c5)c(C)c4)c13)C2 (single isomer, unassigned) [Examples 126 and 127, first eluting isomer, 1-(3-(4-((4-([1,2,4]triazolo[1,5-a]pyridin-7-yloxy)-3-methylphenyl)amino)pyrrolo[2,1-f][1,2,4]triazin-5-yl)-8-azabicyclo[3.2.1]octan-8-yl)-2-((dimethylamino)methyl)prop-2-en-1-one]	1500 to 5000	200 to 500	< 200
C=C(CN(C)C)C(=O)N1C2CCC1CC(c1ccn3ncnc(Nc4ccc(Oc5ccn6ncnc6c5)c(C)c4)c13)C2 (single isomer, unassigned) [Examples 126 and 127, second eluting isomer, 1-(3-(4-((4-([1,2,4]triazolo[1,5-a]pyridin-7-yloxy)-3-methylphenyl)amino)pyrrolo[2,1-f][1,2,4]triazin-5-yl)-8-azabicyclo[3.2.1]octan-8-yl)-2-((dimethylamino)methyl)prop-2-en-1-one]	1500 to 5000	500 to 1500	200 to 500
C=C(CN(C)C)C(=O)N1CC2CCC1CC2c1ccn2ncnc(Nc3ccc(Oc4ccn5ncnc5c4)c(C)c3)c12 (single isomer, unassigned) [Examples 135 and 136, first eluting isomer, 1-(5-(4-((4-([1,2,4]triazolo[1,5-a]pyridin-7-yloxy)-3-methylphenyl)amino)pyrrolo[2,1-f][1,2,4]triazin-5-yl)-2-azabicyclo[2.2.2]octan-2-yl)-2-((dimethylamino)methyl)prop-2-en-1-one]	1500 to 5000	< 200	< 200
C=C(CN(C)C)C(=O)N1CC2CCC1CC2c1ccn2ncnc(Nc3ccc(Oc4ccn5ncnc5c4)c(C)c3)c12 (single isomer, unassigned) [Examples 135 and 136, second eluting isomer, 1-(5-(4-((4-([1,2,4]triazolo[1,5-a]pyridin-7-yloxy)-3-methylphenyl)amino)pyrrolo[2,1-f][1,2,4]triazin-5-yl)-2-azabicyclo[2.2.2]octan-2-yl)-2-((dimethylamino)methyl)prop-2-en-1-one]	< 200	200 to 500	< 200
Cc1cc(Nc2ncnn3ccc(C4CC5CCC4CN5C(=O)/C=C/CN(C)C)c23)ccc1Oc1ccn2ncnc2c1 (single isomer, unassigned) [Examples 137 and 138, second eluting isomer, (E)-1-(5-(4-((4-([1,2,4]triazolo[1,5-a]pyridin-7-yloxy)-3-methylphenyl)amino)pyrrolo[2,1-f][1,2,4]triazin-5-yl)-2-azabicyclo[2.2.2]octan-2-yl)-4-(dimethylamino)but-2-en-1-one]	1500 to 5000	1500 to 5000	500 to 1500
C=CC(=O)N1CC2CCC1CC2c1ccn2ncnc(Nc3ccc(Oc4ccn5ncnc5c4)c(C)c3)c12 (single isomer, unassigned) [Examples 139 and 140, first eluting isomer, 1-(5-(4-((4-([1,2,4]triazolo[1,5-a]pyridin-7-yloxy)-3-methylphenyl)amino)pyrrolo[2,1-f][1,2,4]triazin-5-yl)-2-azabicyclo[2.2.2]octan-2-yl)prop-2-en-1-one]	1500 to 5000	< 200	< 200
C=CC(=O)N1CC2CCC1CC2c1ccn2ncnc(Nc3ccc(Oc4ccn5ncnc5c4)c(C)c3)c12 (single isomer, unassigned) [Examples 139 and 140, second eluting isomer, 1-(5-(4-((4-([1,2,4]triazolo[1,5-a]pyridin-7-yloxy)-3-methylphenyl)amino)pyrrolo[2,1-f][1,2,4]triazin-5-yl)-2-azabicyclo[2.2.2]octan-2-yl)prop-2-en-1-one]	1500 to 5000	1500 to 5000	500 to 1500
C=C(CN(C)C)C(=O)N1CCCC(c2ccn3ncnc(Nc4ccc(Oc5ccn6ncnc6c5)c(C)c4)c23)CC1 (single isomer, unassigned) [Examples 143 and 144, first eluting isomer, 1-(4-(4-((4-([1,2,4]triazolo[1,5-a]pyridin-7-yloxy)-3-methylphenyl)amino)pyrrolo[2,1-f][1,2,4]triazin-5-yl)azepan-1-yl)-2-((dimethylamino)methyl)prop-2-en-1-one]	1500 to 5000	500 to 1500	< 200
C=C(CN(C)C)C(=O)N1CCCC(c2ccn3ncnc(Nc4ccc(Oc5ccn6ncnc6c5)c(C)c4)c23)CC1 (single isomer, unassigned) [Examples 143 and 144, second eluting isomer, 1-(4-(4-((4-([1,2,4]triazolo[1,5-a]pyridin-7-yloxy)-3-methylphenyl)amino)pyrrolo[2,1-f][1,2,4]triazin-5-yl)azepan-1-yl)-2-((dimethylamino)methyl)prop-2-en-1-one]	1500 to 5000	< 200	< 200
Cc1cc(Nc2ncnn3ccc(C4CCCN(C(=O)C(F)Cl)CC4)c23)ccc1Oc1ccn2ncnc2c1 (single isomer, unassigned) [Examples 145, 146, 147 and 148, first eluting isomer, 1-(4-(4-((4-([1,2,4]triazolo[1,5-a]pyridin-7-yloxy)-3-methylphenyl)amino)pyrrolo[2,1-f][1,2,4]triazin-5-yl)azepan-1-yl)-2-chloro-2-fluoroethan-1-one]	1500 to 5000	200 to 500	< 200
Cc1cc(Nc2ncnn3ccc([C@@H]4CCCN(C(=O)[C@H](F)Cl)CC4)c23)ccc1Oc1ccn2ncnc2c1 (single isomer, unassigned) [Examples 145, 146, 147 and 148, fourth eluting isomer]	1500 to 5000	500 to 1500	200 to 500
